According to patent publication US8404707B2, “Imidazo [1, 2-a] pyrrolo [3, 2-c] pyridine compounds useful as pestivirus inhibitors” (Universite d'Auvergne Clermont 1, priority 2006, dated 2013):
≈ marks a conversion by molar mass, not a printed value. Where two headings read alike, the source gives them in different places.

Experiments:
BVDV-1 (strain PE515) = assay: Anti-BVDV assay (protection of MDBK cell monolayer from virus-induced cytopathic effect, MTS readout); assay type: cell-based, Bovine Viral Diarrhea virus; conditions: for EC50: Bovine viral diarrhea virus isolates and strains, MDBK, 120 h, BVDV-1 in MDBK cells, 5 days incubation, concentration that protects 50% of the cell monolayer from virus-induced cytopathic effect; for SI: Selectivity index (ratio of CC50 to EC50): CC50 (MDBK cells) / EC50 (BVDV)
Description: (§1) Madin-Darbey Bovine Kidney (MDBK) cells were maintained in Dulbecco's modified Eagle medium (DMEM) supplemented with BVDV-free 5% fetal calf serum (DMEME-FCS) at 37° C. in a humidified, 5% CO2 atmosphere. BVDV-1 (strain PE515) was used to assess the antiviral activity in MDBK cells.
Ninety-six-well cell culture plates were seeded with MDBK cells in DMEM-FCS so that cells reached 24 hr later confluency. Then medium was removed and serial 5-fold dilutions of the test compounds were added in a total volume of 100 μl, after which the virus inoculum (100 μl) was added to each well. […] Uninfected cells and cells receiving virus without compound were included in each assay plate. After 5 days, medium was removed and 90 μl of DMEM-FCS and 10 μl of MTS/PMS solution (Promega) was added to each well. Following a 2 hr incubation period at 37° C. the optical density of the wells was read at 498 nm in a microplate reader.

[1] = Determination of cytostatic effect on MDBK cells (MTS method); assay type: cell-based, Bovine; conditions: bovine, MDBK cells (exponentially growing), 3 days incubation, 50% cytostatic concentration
Description: as §1
(§2) The effect of the drugs on exponentially growing MDBK cells was assessed as follows. Cells were seeded at a density of 5000 cell/well in 96 well plates in MEM medium (Gibco) supplemented with 10% fetal calf serum, 2 mM L-glutamine (Life Technologies) and bicarbonate (Life Technologies). Cells, were cultured for 24 hr after which serial dilutions of the test compounds were added. Cultures were then again further incubated for 3 days after which the effect on cell growth was quantified by means of the MTS method (Promega). The concentration that results in 50% inhibition of cell growth is defined as the 50% cytostatic concentration (CC50)

MDBK cells = assay: as above; assay type: cell-based, Bovine; conditions: exponentially growing MDBK cells, 3 days incubation; 50% cytostatic concentration
Description: as §1, §2

SMILES | melting point [°C] | EC50 (BVDV-1 (strain PE515)) [µg/mL] | EC50 (BVDV-1 (strain PE515); read-out: EC50) [µg/mL] | SI: Selectivity index (ratio of CC50 to EC50) (BVDV-1 (strain PE515)) | CC50 at 3 days [1] [µg/mL] | CC50 (MDBK cells) [µg/mL]
CCCCc1cc2c3n(ccc-2n1)CC(C)=N3 | 162 | – | – | – | – | –
CCOC(=O)c1cc2c3n(ccc-2n1)CC(CCl)=N3 | 270 to 272 | – | – | – | – | –
CCOC(=O)c1cc2c(ccn3cc(CN(C)C)nc23)[nH]1 [Compound 9, Ethyl 2-N,N dimethylaminomethylimidazo[1,2-a]pyrrolo[3,2-c]pyridine-8-carboxylate] | – | 3 (≈ 10.5 µM) | – | – | – | –
CCOC(=O)c1cc2c3n(ccc-2n1)CC(c1cccc(OC)c1)=N3 | 198 to 200 | – | – | – | – | –
CCOC(=O)n1c(-c2ccc(F)cc2)cc2c1ccn1cc(C)nc21 [Compound 26b, Ethyl 8-(4-fluorophenyl)-2-methylimidazo[1,2-a]pyrrolo[3,2-c]pyridine-7-carboxylate] | 175 | – | 1.25 (≈ 3.71 µM) | ±6 | 7.9 (≈ 23.4 µM) | –
COc1ccc(-c2cc3c4n(ccc-3n2)CC(C)=N4)cc1 | 168 | – | – | – | – | –
CCOC(=O)c1cc2c3n(ccc-2n1)CC(CO)=N3 [Compound 11, Ethyl 2-hydroxymethylimidazo[1,2-a]pyrrolo[3,2-c]pyridine-8-carboxylate] | 227 to 229 | – | 9 (≈ 34.7 µM) | ±10 | 87 (≈ 336 µM) | –
CC1=Nc2c3cc(C(=O)O)nc-3ccn2C1 [Compound 15, 2-Methylimidazo[1,2-a]pyrrolo[3,2-c]pyridine-8-carboxylic acid] | – | – | 0.5 (≈ 2.32 µM) | – | > 100 | >100
CCOC(=O)n1c(-c2ccc(OC)cc2)cc2c1ccn1cc(C)nc21 | 158 to 159 | – | – | – | – | –
CC1=Nc2c3cc(-c4ccc(F)cc4)nc-3ccn2C1 [Compound 27b, 8-(4-fluorophenyl)-2-methylimidazo[1,2-a]pyrrolo[3,2-c]pyridine] | – | – | 1.27 (≈ 4.79 µM) | ±37 | 47.5 (≈ 179 µM) | –
CCOC(=O)c1cc2c3n(ccc-2n1)CC(C(C)C)=N3 [Compound 7f, Ethyl 2-isopropylimidazo[1,2-a]pyrrolo[3,2-c]pyridine-8-carboxylate] | 207 to 209 | – | 0.6 (≈ 2.21 µM) | ±36 | 22 (≈ 81.1 µM) | –
CCOC(=O)c1cc2c3n(ccc-2n1)CC(Br)=N3 [Compound 7i, Ethyl 2-bromoimidazo[1,2-a]pyrrolo[3,2-c]pyridine-8-carboxylate] | – | – | 1.5 (≈ 4.87 µM) | >33 | > 50 | –
CCOC(=O)c1cc2c3n(ccc-2n1)CC(C(F)(F)F)=N3 [Compound 7e, Ethyl 2-trifluoromethylimidazo[1,2-a]pyrrolo[3,2-c]pyridine-8-carboxylate] | 230 to 231 | 1.5 (≈ 5.05 µM) | – | ±33 | > 50 | –
CCOC(=O)c1cc2c3n(ccc-2n1)CC(C)=N3 [Compound 7b, Ethyl 2-methylimidazo[1,2-a]pyrrolo[3,2-c]pyridine-8-carboxylate] | 201 to 203 | – | 0.8 (≈ 3.29 µM) | ±81 | 65 (≈ 267 µM) | –
CCOC(=O)c1cc2c3n(ccc-2n1)CC(C(OCC)OCC)=N3 [Compound 7h, Ethyl 2-diethoxymethylimidazo[1,2-a]pyrrolo[3,2-c]pyridine-8-carboxylate] | 242 to 244 | – | 3 (≈ 9.05 µM) | ±7 | 22 (≈ 66.4 µM) | –
